In patent US20090203636A1, “Prevention and Treatment of Cancer and Other Diseases” (priority 2006, published 2009):
In brackets after ≈: the same amount, converted by molar mass. Counter-ions that a name gives are not always drawn.

Assays:
U-2 OS cells [1] = assay: Telomere length (flow cytometry, PNA probe), cell cycle distribution (PI), apoptosis and TRAP status in U-2 OS cells; assay type: cell-based, human
Description: (§1) The ALT cell lines were treated with therapeutic concentrations of AZT, to determine if slippage telomeric DNA synthesis could be inhibited by AZT-TP, and thereby induce telomere shortening. Telomere length in AZT treated and untreated cell lines was measured by flow cytometry with a telomere specific peptide nucleic acid (PNA) probe. To determine cell cycle distribution, cells were stained with propidium iodide (PI).
Rate of DNA synthesis was determined by incorporation of 5-bromodeoxyuridine (BdU). […] It is important to note that changes in cell cycle distribution, DNA synthesis and telomere length were rapid and could be detected after only 10 days of AZT treatment.
Telomere length in untreated and GCV treated cells was measured by flow cytometry with a telomere-specific PNA probe as described above.
To determine cell cycle distribution, cells were stained with propidium iodide (PI).
(§2) Both telomerase positive (Hela) telomerase negative (U-2 OS) cell lines were used. Appropriate assays were performed to detect and confirm telomerase/L1RT specific activity in these cells.
(§3) The U-2 OS (osteosarcoma) and HeLa (uterine cervix) cell lines used in this study were obtained from American Type Culture Collection (Rockville, Md.). Cells were cultured in D-MEM media supplemented with 10% fetal calf serum at 37° C. in a humidified atmosphere of 5% CO2. For treatment of the cells with ACV, the media was supplemented with 3 μM of acyclovir (acyclovir, TEVA Pharm. Ind. Ltd, Israel). For treatment of the cells with GCV, the media was supplemented with 1.5 μM of GCV (Cymevene, Hoffman-La Roche). For treatment of the cells with PCV, the media was supplemented with 1.5 μM of PCV (penciclovir, Merck & Co.).
(§4) Real time TRAP assay was performed as described (Wege et al., SYBR Green real-time telomeric repeat amplification protocol for the rapid quantification of telomerase activity. Nucleic Acids Res. 2003; 31(2):E3-3). For telomere length measurement by flow cytometry, cells were stained with telomere specific FITC conjugated (C3TA2)3 PNA (Applied Biosystems) probe and contrastained with 0.06 μg/ml PI as described by Rufer, N., Dragowska, W., Thornbury G., Roosnek, E., Lansdorp P. M. Telomere length dynamics in human lymphocyte subpopulations […]. Nat. Biotechnol. 16, 743-747 (1998)).
(a) In vitro arrays: U-2 OS cells were incubated with 0.2 μM of AZT for 22 days. Actively growing clones were analyzed by flow-FISH with telomere specific PNA probe, and in real time TRAP assay using HeLa cells as positive control. Isolated actively growing clones were different from parental cells in DNA content and telomere length.
(§5) Telomere length in SN 1 or SN 2 treated and untreated cell lines was measured by flow cytometry with a telomere—specific peptide nucleic acid PNA) probe. To determine cell cycle distribution, cells were stained with propidium iodide (PI).
(§6) The U-2 OS (osteosarcoma) and Hela (uterine cervix) cell lines used in this study were obtained from American Type Culture Collection (Rockville, Md.). Cells were cultured in D-MEM media supplemented with 10% fetal calf serum at 37° C. in a humidified atmosphere of 5% CO2. For treatment of the cells with SN 1 or SN 2, the media was supplemented with 1.5 μM of SN1 or SN2.
(§7) For telomere length measurement by flow cytometry, cells were stained with telomere specific FITC conjugated (C3TA2)3 PNA (Applied Biosystems) probe and contra-stained with 0.06 μg/ml PI as described by Rufer, N., Dragowska, W., Thornbury G., Roosnek, E., Lansdorp P. M. Telomere length dynamics in human lymphocyte subpopulations […]. Nat. Biotechnol. 16, 743-747 (1998)).

HeLa cells [2] = assay: Telomere length (flow cytometry, PNA probe), cell cycle distribution (PI) and apoptosis in HeLa cells; assay type: cell-based, human
Description: as §1
(§8) The origin of the cell lines are uterine cervix (HeLa) and epithelial ovarian (NuTu-19). Cells were cultured in D-MEM media supplemented with 10% fetal calf serum at 37° C. in a humidified atmosphere of 5% CO2. For treatment of the cells with GCV, the media was supplemented with 1.5 μM of GCV (Cymevene, Hoffman-La Roche). For treatment of the cells with ACV, the media was supplemented with 3 μM of Acyclovir (Acyclovir, TEVA Pharm. Ind. Id. Israel).
as §4, §2, §3, §5, §6, §7

NuTu-19 cells = assay: Telomere length (flow cytometry, PNA probe), cell cycle distribution (PI) and apoptosis in NuTu-19 cells; assay type: cell-based; conditions: GCV 1.5 μM or ACV 3.0 μM, 14 days (Example 2b)
Description: as §8, §4

U-2 OS cells [3] = conditions: therapeutic concentrations, 14 days; reported in WO 2005/069880; cited from earlier work
[4] = test system: Saos-2 osteosarcoma cells; conditions: therapeutic concentrations, 14 days; reported in WO 2005/069880; cited from earlier work
[5] = MTT-microtiter plate tetrazolium cytotoxicity assay; assay type: cell-based; conditions: dog, MDCK (ATCC) cells; continuous exposure for 2 days; read-out: IC50 cytotoxic doses
Description: (a) Cytotoxcity Assay: The cytotoxic effects of compounds of the invention was determined using pharmacological models that are well known to the art, i.e., MTT-microtiter plate tetrazolium cytotoxicity Assay. Specifically, cytotoxicity assays were performed using the MIT assay procedure described in Mosmann, 1983, Rapid calorimetric assay for cellular growth and survival: application to proliferation and cytotoxicity assays, J Immunol Methods, 65:55-63. Briefly, the assay was performed by using 96-well microtiter plates plated at 10^4 MDCK (ATCC) cells/well, in […] of growth medium.
For determination of IC50 cells were exposed continuously for 2 days to varying concentrations of SN1, SN2, SN3, SN4 and valine ester of SN1. MIT assays were performed at the end of the 2nd day. […] All assays were performed at least 2 times in 3 replicate wells.

HeLa cells [6] = assay type: in vivo; conditions: Valcyte in drinking water (1 mg/ml) from day 0
Description: For in vivo assay, appropriate host, e.g., nude (nu/nu) mice of about 5-7 weeks old are obtained and maintained in pathogen-free conditions. Approximately, 1×10^6 HeLa cells (and/or U-2 OS cells) contained in 200 μl of serum-free media are delivered to all animals, briefly anaesthetize with Metofane, by subcutaneous (s.c.) injection in flank. Then the mice are divided into experimental group and control group. Appropriate concentrations of compounds of the formulas (I) to (VI), ACV, PCV and/or GCV are used for tumor growth progression or regression assays.
In one embodiment, impairment of s.c. tumor growth or time to progression rather than decrease in size of an established tumor (regression) is assessed. In this embodiment, starting from the day zero, mice in the experimental group receive GCV in drinking water ad libitum. Concentration of GCV in water can be 2 mg/ml. Fresh solution of GCV is supplied every 3 days. Mice in the control group receive only drinking water. Tumors are measured every 2-3 days. Mice are sacrificed when tumors exceed 1 cm^3. Tumor volume is calculated with formula 4/3πr^3, where r is the radius of the tumor.
Experimental group received valganciclovir in drinking water from day 0. Human cancer HeLa cell culture was purchased from ATCC. In all, 12 CD1/-nu and 12 NMRiI/-nu nude mice were purchased from Charles River Laboratories, Charles River Deutschland GmbH. These nude mice were injected s.c. with 3×10^5 Hela cells. Mice in the experimental groups (6 mice per strain) were exposed to Valcyte® (val-ganciclovir) in drinking water (1 mg/ml) from day 0.
(a) In vivo assays using Valganciclovir and zidovudine (AZT) combination: Human cancer HeLa cell culture was purchased from ATCC. A total of 24 CD1/-nu nude mice were purchased from Charles River laboratories, Charles River Deutschland GmbH. These mice were injected s.c. with 1×10^5 HeLa cells. The tumor volumes were determined by measurement of maximal and minimal diameters of the tumor. The calculations were conducted using the formula V=4/3 πRmax×Rmin^2, where Rmax−½ of maximal diameter of the tumor, and Rmin−½ of minimal diameter of the tumor. nude mice were injected s.c. with 1×10^5 Hela cells.
Of the 12 treated mice, after 20 days of double cocktail treatment, six mice were administered with a triple cocktail (Valcyte®+Retrovir®+ddI at the dose of 1 mg/ml each in drinking water for a further period 21 days (see Example 7 below) and only six mice continued to receive the double cocktail for another 21 days at which time tumor measurements were taken for all mice injected with HeLa cells. Of the remaining 12 mice injected with HeLa cells but untreated with any cocktail or anticancer agent thus far, six were maintained as controls for the rest of the duration of the experiment. The other six were treated with Xeloda® 67 days after the injection of HeLa cells (see Example 7 below).
As mentioned in Example 5 above, a total of six mice, after 20 days of double cocktail treatment, were administered with a triple cocktail (Valcyte®+Retrovir®+ddI at the dose of 1 mg/ml each in drinking water) for a further period 21 days. After 14 days of triple cocktail treatment, Xeloda® at a concentration 1 mg/ml was added to the triple cocktail. Six mice previously untreated with any drug for 67 days after the injection of HeLa cells were treated with Xeloda® at a concentration 1 mg/ml in drinking water. Tumor measurements were taken in all mice 75 days following the injection of HeLa cells.

[7] = ACV 3.0, GCV 1.5 μM or PCV 1.5 μM, 10 and 14 days (Example 2c)
[8] = GCV 1.5 μM or ACV 3.0 μM, 14 days (Example 2b)

Compound: Nc1nc2c(ncn2COCCO)c(=O)[nH]1 [ACV, 9-[2(hydromethoxy)-methyl]guanine]
- telomere length, apoptosis and cell cycle distribution (U-2 OS cells [1]; [7]): telomere shortening, massive apoptosis and G2 arrest
- telomere length, apoptosis and cell cycle distribution (HeLa cells [2]; [7]): telomere shortening, massive apoptosis and G2 arrest
- telomere length, apoptosis and cell cycle distribution (HeLa cells [2]; [8]): telomere shortening, massive apoptosis and G2 arrest
- telomere length, apoptosis and cell cycle distribution (NuTu-19 cells): telomere shortening, massive apoptosis and G2 arrest

Compound: Nc1nc(O)c2ncn(COC(CO)CO)c2n1 [GCV]
- telomere length, apoptosis and cell cycle distribution (U-2 OS cells [1]; [7]): telomere shortening, massive apoptosis and G2 arrest
- telomere length, apoptosis and cell cycle distribution (U-2 OS cells [1]; GCV 0.3 μg/ml, 14 days): telomere shortening, massive apoptosis programmed cell death) and G2 arrest
- telomere length, apoptosis and cell cycle distribution (HeLa cells [2]; [7]): telomere shortening, massive apoptosis and G2 arrest
- telomere length, apoptosis and cell cycle distribution (HeLa cells [2]; [8]): telomere shortening, massive apoptosis and G2 arrest
- telomere length, apoptosis and cell cycle distribution (NuTu-19 cells): telomere shortening, massive apoptosis and G2 arrest
- telomere length, cell cycle and apoptosis (U-2 OS cells [3]): telomere shortening, G2 arrest and massive apoptosis
- telomere length, cell cycle and apoptosis [4]: telomere shortening, G2 arrest and massive apoptosis

Compound: Nc1nc2c(ncn2CCC(CO)CO)c(=O)[nH]1 [PCV]
- telomere length, apoptosis and cell cycle distribution (U-2 OS cells [1]; [7]): telomere shortening, massive apoptosis and G2 arrest
- telomere length, apoptosis and cell cycle distribution (HeLa cells [2]; [7]): telomere shortening, massive apoptosis and G2 arrest

Compound: Cc1cn(COCCO)c(=O)[nH]c1=O [SN1, 1-[(2-Hydroxyethoxy)methyl]-5-methyluracil]
- telomere length, apoptosis and cell cycle distribution (HeLa cells [2]; SN 1 or SN 2 1.5 μM, 14 days): telomere shortening, massive apoptosis and G2 arrest
- IC50 at 2 days [5]: 750 µg/mL (≈ 3.75 mM)

Compound: Nc1ncnc2c1ncn2COCCO [SN2, 9-[(2-Hydroxyethoxy)methyl]-adenine]
- telomere length, apoptosis and cell cycle distribution (HeLa cells [2]; SN 1 or SN 2 1.5 μM, 14 days): telomere shortening, massive apoptosis and G2 arrest
- IC50 at 2 days [5]: 750 µg/mL (≈ 3.58 mM)

Compound: Cc1cn(COC(CO)CO)c(=O)[nH]c1=O [SN3, 1-[(1,3-Dihydroxy-2-propoxy)methyl]-5-methyluracil]
- IC50 at 2 days [5]: > 1000 µg/mL
- melting point: 156 to 157 °C

Compound: Nc1ncnc2c1ncn2COC(CO)CO [SN4, 9-[(1,3-Dihydroxy-2-propoxy)methyl]-adenine]
- IC50 at 2 days [5]: > 1000 µg/mL

Compound: Cc1cn(COCCOC(=O)[C@@H](N)C(C)C)c(=O)[nH]c1=O [VSN1, 2-[(5-Methyluracil-1-yl)methoxy]-ethyl L-valinate hydrochloride monohydrate]
- IC50 at 2 days [5]: > 1000 µg/mL

Compound: CC(C)[C@H](N)C(=O)OCC(CO)OCn1cnc2c(=O)nc(N)[nH]c21 (stereo partly drawn) [Valcyte®]
- tumor growth in the other treated mice (HeLa cells [6]): slowing of tumor growth
- tumor development (HeLa cells [6]; about 14 days): All mice in control and treated groups had developed tumors
- mice in which the tumor regressed and was eliminated by monotherapy (HeLa cells [6]; by about day 30): one
